Assay results: patent US20220355283A1, “DRUG, DRUG MANUFACTURING METHOD, AND WATER PURIFICATION METHOD” (priority 2019, published 2022)
Like-named read-outs stand apart in the source and are kept apart here.

Test: Lewis acidity measurement method (1): rate constant for the reaction between CoTPP and oxygen in the presence of a Lewis acid
Type: physicochemical
[1] = rate constant for reaction between CoTPP and oxygen in presence of the Lewis acid, MeCN, room temperature

Row | Compound | kcat, M^−2 s^−1 [M^−2 s^−1] | kcat, M^−2 s^−1 [1] [M^−2 s^−1]
1 | CCCC[N+](CCCC)(CCCC)CCCC.F[P-](F)(F)(F)(F)F [tetrabutylammonium hexafluorophosphate] | >0.1 | 
2 | benzalkonium chloride |  | 0.18
3 | benzethonium chloride |  | 0.24
